What was measured:
[1] = tested on: B. subtilis 168; assay: fitness (endpoint OD595 vs no drug) (fraction); higher = more growth
Summary of the method: (§1)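 Bacterial growth was followed in 384-well plates seeded at OD595 0.01, with 30 µl per well, or 55 µl for S. pneumoniae, in TSB, LB Lennox or CY at 37 °C. OD595 was read every 30 min for 14 h, and each reading had the first reading subtracted as background. Fitness is the background-corrected optical density at entry into stationary phase divided by the robust mean of the no-drug control wells. This ratio is capped at 1.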

[2] = tested on: S. aureus Newman; assay: as above; conditions: one replicate
Summary of the method: as §1

[3] = tested on: B. subtilis 168; assay: Bliss interaction score (quartile over a dose matrix) (fitness difference); higher = more antagonism (negative = synergy)
Summary of the method: (§2)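 Quartiles summarise the Bliss score over technical, biological and donor/recipient replicates, where the score is observed minus expected fitness under a product model. Expected fitness uses single-drug values inferred from combination data. Fitness is OD595 at entry into stationary phase over the plate's robust no-drug mean, capped at 1.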

[4] = tested on: S. aureus DSM 20231; assay: as above
Summary of the method: as §2

[5] = tested on: S. aureus Newman; assay: as above
Summary of the method: as §2

[6] = tested on: S. pneumoniae D39V; assay: as above
Summary of the method: as §2
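Wherever Bliss interaction score (quartile over a dose matrix) is given: first quartile when negative (synergy) and third quartile when positive (antagonism).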

CO/N=C(\C(=O)N[C@@H]1C(=O)N2C(C(=O)O)=C(COC(N)=O)CS[C@H]12)c1ccco1 [Cefuroxime] + CN(C)c1cc(NC(=O)CNC(C)(C)C)c(O)c2c1C[C@H]1C[C@H]3[C@H](N(C)C)C(O)=C(C(N)=O)C(=O)[C@@]3(O)C(O)=C1C2=O [Tigecycline]
fitness
Conditions | partner 0.039 µg/mL | partner 0.078 µg/mL | partner 0.156 µg/mL
[1], first compound 0.0975 µg/mL | 0.652 | 0.677 | 0.669
[1], first compound 0.195 µg/mL | 0.553 | 0.53 | 0.537
[2], first compound 0.04875 µg/mL | 0.933 | 0.907 | 0.95
[2], first compound 0.0975 µg/mL | 0.927 | 0.959 | 0.895
[2], first compound 0.195 µg/mL | 0.879 | 0.843 | 0.863

fitness, [1], one replicate
Conditions | first compound 0.195 µg/mL | first compound 0.39 µg/mL | first compound 0.78 µg/mL | first compound 1.562 µg/mL | first compound 3.125 µg/mL | first compound 6.25 µg/mL
partner 0.039 µg/mL | – | – | – | 0.349 | 0.258 | 0.227
partner 0.078 µg/mL | – | – | – | 0.284 | 0.219 | 0.17
partner 0.125 µg/mL | 0.405 | 0.34 | 0.292 | – | – | –
partner 0.156 µg/mL | – | – | – | 0.283 | 0.235 | 0.153
partner 0.25 µg/mL | 0.368 | 0.287 | 0.211 | – | – | –
partner 0.5 µg/mL | 0.398 | 0.299 | 0.259 | – | – | –

Conditions | Bliss interaction score
[3] | 0.0459
[4] | 0.0902
[5] | -0.0442
[6] | 0.0499

CO/N=C(\C(=O)N[C@@H]1C(=O)N2C(C(=O)O)=C(COC(N)=O)CS[C@H]12)c1ccco1 [Cefuroxime] + CN(N=O)C(=O)N[C@@H](C=O)[C@@H](O)[C@H](O)[C@H](O)CO [Streptozotocin]
fitness
Conditions | first compound 0.04875 µg/mL | first compound 0.0975 µg/mL | first compound 0.195 µg/mL
[1], partner 0.15 µg/mL | 0.717 | 0.688 | 0.539
[1], partner 0.3 µg/mL | – | – | 0.54
[1], partner 0.6 µg/mL | – | – | 0.496
[2], partner 0.15 µg/mL | 0.958 | 0.995 | 0.96
[2], partner 0.3 µg/mL | 0.731 | 0.723 | 0.736
[2], partner 0.6 µg/mL | 0.534 | 0.51 | 0.464

Conditions | Bliss interaction score
[3] | -0.0649
[4] | 0.0897
[5] | -0.194
[6] | -0.0368

CO/N=C(\C(=O)N[C@@H]1C(=O)N2C(C(=O)O)=C(COC(N)=O)CS[C@H]12)c1ccco1 [Cefuroxime] + Cc1onc(-c2ccccc2)c1C(=O)N[C@@H]1C(=O)N2[C@@H]1SC(C)(C)[C@@H]2C(=O)O [Oxacillin]
fitness, [1], one replicate
Conditions | partner 0.002 µg/mL | partner 0.004 µg/mL | partner 0.0078 µg/mL | partner 0.008 µg/mL | partner 0.0155 µg/mL | partner 0.031 µg/mL | partner 0.075 µg/mL | partner 0.15 µg/mL | partner 0.3 µg/mL
first compound 0.04875 µg/mL | 0.882 | 0.858 | 0.556 | 0.979 | 0.507 | 0.507 | – | – | –
first compound 0.0975 µg/mL | 0.734 | 0.866 | 0.506 | 0.881 | 0.454 | 0.486 | – | – | –
first compound 0.195 µg/mL | 0.739 | 0.705 | 0.375 | 0.717 | 0.344 | 0.367 | 0.0418 | 0.0405 | 0.0333
first compound 0.39 µg/mL | – | – | – | – | – | – | 0.0582 | 0.0174 | 0.0294
first compound 0.78 µg/mL | – | – | – | – | – | – | 0.0387 | 0.0089 | 0.0244
first compound 1.562 µg/mL | 0.239 | 0.138 | – | 0.111 | – | – | – | – | –
first compound 3.125 µg/mL | 0.137 | 0.129 | – | 0.0905 | – | – | – | – | –
first compound 6.25 µg/mL | 0.11 | 0.1 | – | 0.0957 | – | – | – | – | –

fitness, [2]
Conditions | first compound 0.04875 µg/mL | first compound 0.0975 µg/mL | first compound 0.195 µg/mL
partner 0.0156 µg/mL | 0.813 | 0.766 | 0.754
partner 0.0312 µg/mL | 0.714 | 0.671 | 0.694
partner 0.0625 µg/mL | 0.447 | 0.436 | 0.323

Conditions | Bliss interaction score
[3] | -0.0556
[4] | 0.0493
[5] | -0.0271
[6] | -0.115

CO/N=C(\C(=O)N[C@@H]1C(=O)N2C(C(=O)O)=C(COC(N)=O)CS[C@H]12)c1ccco1 [Cefuroxime] + CC1=C\[C@@H](O)CC(=O)Cc2nc(co2)C(=O)N2CCC=C2C(=O)O[C@H](C(C)C)[C@H](C)/C=C/C(=O)NC\C=C\1 [Virginiamycin M1]
fitness
Conditions | partner 0.0625 µg/mL | partner 0.125 µg/mL | partner 0.25 µg/mL
[1], first compound 0.04875 µg/mL | – | 0.76 | –
[1], first compound 0.195 µg/mL | 0.558 | 0.555 | 0.538
[2], first compound 0.04875 µg/mL | 0.927 | 0.952 | 0.943
[2], first compound 0.0975 µg/mL | 0.963 | 0.992 | 0.965
[2], first compound 0.195 µg/mL | 0.89 | 0.944 | 0.893

fitness, [1], one replicate
Conditions | first compound 1.562 µg/mL | first compound 3.125 µg/mL | first compound 6.25 µg/mL
partner 0.0625 µg/mL | 0.334 | 0.259 | 0.239
partner 0.125 µg/mL | 0.325 | 0.26 | 0.208
partner 0.25 µg/mL | 0.309 | 0.217 | 0.182

Conditions | Bliss interaction score
[3] | 0.0564
[4] | 0.103
[5] | -0.0495
[6] | -0.0415

CO/N=C(\C(=O)N[C@@H]1C(=O)N2C(C(=O)O)=C(COC(N)=O)CS[C@H]12)c1ccco1 [Cefuroxime] + O=C(O[C@@H]1Cc2c(O)cc(O)cc2O[C@@H]1c1cc(O)c(O)c(O)c1)c1cc(O)c(O)c(O)c1 [EGCG]
fitness
Conditions | first compound 0.04875 µg/mL | first compound 0.0975 µg/mL | first compound 0.195 µg/mL
[1], partner 6.25 µg/mL | 0.74 | 0.667 | 0.438
[1], partner 12.5 µg/mL | 0.376 | 0.493 | 0.506
[1], partner 25 µg/mL | 0.249 | 0.219 | 0.17
[2], partner 12.5 µg/mL | 0.885 | 0.801 | 0.879
[2], partner 25 µg/mL | 0.767 | 0.773 | 0.756
[2], partner 50 µg/mL | 0.688 | 0.617 | 0.561

fitness, [1], one replicate
Conditions | first compound 0.39 µg/mL | first compound 0.78 µg/mL | first compound 1.562 µg/mL | first compound 3.125 µg/mL | first compound 6.25 µg/mL
partner 6.25 µg/mL | 0.425 | 0.411 | 0.356 | 0.3 | 0.304
partner 12.5 µg/mL | 0.461 | 0.436 | 0.195 | 0.236 | 0.279
partner 25 µg/mL | 0.274 | 0.318 | 0.103 | 0.064 | 0.0477

Conditions | Bliss interaction score
[3] | 0.158
[4] | 0.0989
[5] | 0.0827
[6] | 0.0461

Source: the supplement of paper PMC10627819
